Legend:
Type in all cases: in vivo
Details in all cases: after 13 d
[1] = tested on: giant foxtail (Setaria faberi, SETFA); assay: Test A pre-emergence, giant foxtail
Protocol: (§1) Seeds of corn (Zea mays, ZEAMX), giant foxtail (Setaria faberi, SETFA), barnyardgrass (Echinochloa crus-galli, ECHCG), ivy-leaved morning glory (Ipomoea hederacea, IPOHE), redroot pigweed (Amaranthus retroflexus, AMARE) and velvetleaf (Abutilon theophrasti, ABUTH) were sown in standard soil in pots. After cultivation for one day under controlled conditions in a glasshouse (at 24/16° C., day/night; 14 h light; 65% humidity), the plants were sprayed with an aqueous spray solution derived from the formulation of the technical active ingredient in acetone/water (50:50) solution containing 0.5% Tween 20 (polyoxyethylene sorbitan monolaurate, CAS RN 9005-64-5) to give a final dose of 15.625, 62.5 or 250 g/ha of test compound.
(§2) The test plants were then grown under controlled conditions in a glasshouse (at 24/16° C., day/night; 14 h light; 65% humidity) and watered twice daily. After 13 d the test was evaluated (100=total damage to plant; 0=no damage to plant).

[2] = tested on: corn (Zea mays, ZEAMX); assay: Test A pre-emergence, corn
Protocol: as §1, §2

[3] = tested on: redroot pigweed (Amaranthus retroflexus, AMARE); assay: Test A post-emergence, redroot pigweed
Protocol: as §1, with “IPOHE)),” for “IPOHE),”, “8 d” for “one day”
(§3) The test plants were then grown on under controlled conditions in a glasshouse (at 24/16° C., day/night; 14 h light; 65% humidity) and watered twice daily. After 13 d the test was evaluated (100=total damage to plant; 0=no damage to plant).

[4] = tested on: barnyardgrass (Echinochloa crus-galli, ECHCG); assay: Test A post-emergence, barnyardgrass
Protocol: as §1, with “IPOHE)),” for “IPOHE),”, “8 d” for “one day”
as §3

[5] = tested on: barnyardgrass (Echinochloa crus-galli, ECHCG); assay: Test A pre-emergence, barnyardgrass
Protocol: as §1, §2

[6] = tested on: ivy-leaved morning glory (Ipomoea hederacea, IPOHE); assay: Test A pre-emergence, ivy-leaved morning glory
Protocol: as §1, §2

[7] = tested on: redroot pigweed (Amaranthus retroflexus, AMARE); assay: Test A pre-emergence, redroot pigweed
Protocol: as §1, §2

[8] = tested on: velvetleaf (Abutilon theophrasti, ABUTH); assay: Test A post-emergence, velvetleaf
Protocol: as §1, with “IPOHE)),” for “IPOHE),”, “8 d” for “one day”
as §3

[9] = tested on: ivy-leaved morning glory (Ipomoea hederacea, IPOHE); assay: Test A post-emergence, ivy-leaved morning glory
Protocol: as §1, with “IPOHE)),” for “IPOHE),”, “8 d” for “one day”
as §3

[10] = tested on: corn (Zea mays, ZEAMX); assay: Test A post-emergence, corn
Protocol: as §1, with “IPOHE)),” for “IPOHE),”, “8 d” for “one day”
as §3

[11] = tested on: velvetleaf (Abutilon theophrasti, ABUTH); assay: Test A pre-emergence, velvetleaf
Protocol: as §1, §2

[12] = tested on: giant foxtail (Setaria faberi, SETFA); assay: Test A post-emergence, giant foxtail
Protocol: as §1, with “IPOHE)),” for “IPOHE),”, “8 d” for “one day”
as §3

SMILES: CN1CC(c2cc(Cl)n(C)n2)C(C(=O)Nc2ccc(F)cc2F)C1=O (racemic) [Compound 29]
- damage to plant (100=total damage; 0=no damage) SETFA ([1]; Pre-Emergence at 15.625 g/ha): 20
- damage to plant (100=total damage; 0=no damage) SETFA ([1]; Pre-Emergence at 62.5 g/ha): 30
- damage to plant (100=total damage; 0=no damage) SETFA ([1]; Pre-Emergence at 250 g/ha): 80
- damage to plant (100=total damage; 0=no damage) ZEAMX ([2]; Pre-Emergence at 15.625 g/ha): 0
- damage to plant (100=total damage; 0=no damage) ZEAMX ([2]; Pre-Emergence at 62.5 g/ha): 10
- damage to plant (100=total damage; 0=no damage) ZEAMX ([2]; Pre-Emergence at 250 g/ha): 10
- damage to plant (100=total damage; 0=no damage) AMARE ([3]; Post-Emergence at 15.625 g/ha): 10
- damage to plant (100=total damage; 0=no damage) AMARE ([3]; Post-Emergence at 62.5 g/ha): 30
- damage to plant (100=total damage; 0=no damage) AMARE ([3]; Post-Emergence at 250 g/ha): 40
- damage to plant (100=total damage; 0=no damage) ECHCG ([4]; Post-Emergence at 15.625 g/ha): 20
- damage to plant (100=total damage; 0=no damage) ECHCG ([4]; Post-Emergence at 62.5 g/ha): 50
- damage to plant (100=total damage; 0=no damage) ECHCG ([4]; Post-Emergence at 250 g/ha): 60
- damage to plant (100=total damage; 0=no damage) ECHCG ([5]; Pre-Emergence at 15.625 g/ha): 30
- damage to plant (100=total damage; 0=no damage) ECHCG ([5]; Pre-Emergence at 62.5 g/ha): 70
- damage to plant (100=total damage; 0=no damage) ECHCG ([5]; Pre-Emergence at 250 g/ha): 80
- damage to plant (100=total damage; 0=no damage) IPOHE ([6]; Pre-Emergence at 15.625 g/ha): 0
- damage to plant (100=total damage; 0=no damage) IPOHE ([6]; Pre-Emergence at 62.5 g/ha): 0
- damage to plant (100=total damage; 0=no damage) IPOHE ([6]; Pre-Emergence at 250 g/ha): 0
- damage to plant (100=total damage; 0=no damage) AMARE ([7]; Pre-Emergence at 15.625 g/ha): 0
- damage to plant (100=total damage; 0=no damage) AMARE ([7]; Pre-Emergence at 62.5 g/ha): 0
- damage to plant (100=total damage; 0=no damage) AMARE ([7]; Pre-Emergence at 250 g/ha): 0
- damage to plant (100=total damage; 0=no damage) ABUTH ([8]; Post-Emergence at 15.625 g/ha): 0
- damage to plant (100=total damage; 0=no damage) ABUTH ([8]; Post-Emergence at 62.5 g/ha): 0
- damage to plant (100=total damage; 0=no damage) ABUTH ([8]; Post-Emergence at 250 g/ha): 0
- damage to plant (100=total damage; 0=no damage) IPOHE ([9]; Post-Emergence at 15.625 g/ha): 0
- damage to plant (100=total damage; 0=no damage) IPOHE ([9]; Post-Emergence at 62.5 g/ha): 0
- damage to plant (100=total damage; 0=no damage) IPOHE ([9]; Post-Emergence at 250 g/ha): 10
- damage to plant (100=total damage; 0=no damage) ZEAMX ([10]; Post-Emergence at 15.625 g/ha): 0
- damage to plant (100=total damage; 0=no damage) ZEAMX ([10]; Post-Emergence at 62.5 g/ha): 0
- damage to plant (100=total damage; 0=no damage) ZEAMX ([10]; Post-Emergence at 250 g/ha): 0
- damage to plant (100=total damage; 0=no damage) ABUTH ([11]; Pre-Emergence at 15.625 g/ha): 0
- damage to plant (100=total damage; 0=no damage) ABUTH ([11]; Pre-Emergence at 62.5 g/ha): 0
- damage to plant (100=total damage; 0=no damage) ABUTH ([11]; Pre-Emergence at 250 g/ha): 0
- damage to plant (100=total damage; 0=no damage) SETFA ([12]; Post-Emergence at 15.625 g/ha): 10
- damage to plant (100=total damage; 0=no damage) SETFA ([12]; Post-Emergence at 62.5 g/ha): 20
- damage to plant (100=total damage; 0=no damage) SETFA ([12]; Post-Emergence at 250 g/ha): 60

SMILES: CN1CC(c2cc(Cl)n(C)n2)C(C(=O)Nc2cccc(F)c2F)C1=O (racemic) [Compound 27]
- damage to plant (100=total damage; 0=no damage) SETFA ([1]; Pre-Emergence at 15.625 g/ha): 60
- damage to plant (100=total damage; 0=no damage) SETFA ([1]; Pre-Emergence at 62.5 g/ha): 80
- damage to plant (100=total damage; 0=no damage) SETFA ([1]; Pre-Emergence at 250 g/ha): 90
- damage to plant (100=total damage; 0=no damage) ZEAMX ([2]; Pre-Emergence at 15.625 g/ha): 0
- damage to plant (100=total damage; 0=no damage) ZEAMX ([2]; Pre-Emergence at 62.5 g/ha): 10
- damage to plant (100=total damage; 0=no damage) ZEAMX ([2]; Pre-Emergence at 250 g/ha): 10
- damage to plant (100=total damage; 0=no damage) AMARE ([3]; Post-Emergence at 15.625 g/ha): 30
- damage to plant (100=total damage; 0=no damage) AMARE ([3]; Post-Emergence at 62.5 g/ha): 40
- damage to plant (100=total damage; 0=no damage) AMARE ([3]; Post-Emergence at 250 g/ha): 30
- damage to plant (100=total damage; 0=no damage) ECHCG ([4]; Post-Emergence at 15.625 g/ha): 20
- damage to plant (100=total damage; 0=no damage) ECHCG ([4]; Post-Emergence at 62.5 g/ha): 50
- damage to plant (100=total damage; 0=no damage) ECHCG ([4]; Post-Emergence at 250 g/ha): 70
- damage to plant (100=total damage; 0=no damage) ECHCG ([5]; Pre-Emergence at 15.625 g/ha): 70
- damage to plant (100=total damage; 0=no damage) ECHCG ([5]; Pre-Emergence at 62.5 g/ha): 90
- damage to plant (100=total damage; 0=no damage) ECHCG ([5]; Pre-Emergence at 250 g/ha): 90
- damage to plant (100=total damage; 0=no damage) IPOHE ([6]; Pre-Emergence at 15.625 g/ha): 0
- damage to plant (100=total damage; 0=no damage) IPOHE ([6]; Pre-Emergence at 62.5 g/ha): 0
- damage to plant (100=total damage; 0=no damage) IPOHE ([6]; Pre-Emergence at 250 g/ha): 10
- damage to plant (100=total damage; 0=no damage) AMARE ([7]; Pre-Emergence at 15.625 g/ha): 0
- damage to plant (100=total damage; 0=no damage) AMARE ([7]; Pre-Emergence at 62.5 g/ha): 0
- damage to plant (100=total damage; 0=no damage) AMARE ([7]; Pre-Emergence at 250 g/ha): 0
- damage to plant (100=total damage; 0=no damage) ABUTH ([8]; Post-Emergence at 15.625 g/ha): 0
- damage to plant (100=total damage; 0=no damage) ABUTH ([8]; Post-Emergence at 62.5 g/ha): 0
- damage to plant (100=total damage; 0=no damage) ABUTH ([8]; Post-Emergence at 250 g/ha): 0
- damage to plant (100=total damage; 0=no damage) IPOHE ([9]; Post-Emergence at 15.625 g/ha): 10
- damage to plant (100=total damage; 0=no damage) IPOHE ([9]; Post-Emergence at 62.5 g/ha): 10
- damage to plant (100=total damage; 0=no damage) IPOHE ([9]; Post-Emergence at 250 g/ha): 20
- damage to plant (100=total damage; 0=no damage) ZEAMX ([10]; Post-Emergence at 15.625 g/ha): 0
- damage to plant (100=total damage; 0=no damage) ZEAMX ([10]; Post-Emergence at 62.5 g/ha): 0
- damage to plant (100=total damage; 0=no damage) ZEAMX ([10]; Post-Emergence at 250 g/ha): 10
- damage to plant (100=total damage; 0=no damage) ABUTH ([11]; Pre-Emergence at 15.625 g/ha): 0
- damage to plant (100=total damage; 0=no damage) ABUTH ([11]; Pre-Emergence at 62.5 g/ha): 0
- damage to plant (100=total damage; 0=no damage) ABUTH ([11]; Pre-Emergence at 250 g/ha): 0
- damage to plant (100=total damage; 0=no damage) SETFA ([12]; Post-Emergence at 15.625 g/ha): 10
- damage to plant (100=total damage; 0=no damage) SETFA ([12]; Post-Emergence at 62.5 g/ha): 50
- damage to plant (100=total damage; 0=no damage) SETFA ([12]; Post-Emergence at 250 g/ha): 70
